Patent US11396493B2, “Amorphous pyrrolidine derivative as PPAR agonist and preparation method thereof” (GUANGDONG RAYNOVENT BIOTECH CO., LTD., priority 2017, dated 2022)

Legend:
PPAR Alpha = target: T1, PPAR Alpha (Homo sapiens, UniProt Q07869); experiment: PathHunter NHR protein interaction test, agonist mode, PPAR Alpha; assay type: cell-based
T1 sequence (Q07869 1-468): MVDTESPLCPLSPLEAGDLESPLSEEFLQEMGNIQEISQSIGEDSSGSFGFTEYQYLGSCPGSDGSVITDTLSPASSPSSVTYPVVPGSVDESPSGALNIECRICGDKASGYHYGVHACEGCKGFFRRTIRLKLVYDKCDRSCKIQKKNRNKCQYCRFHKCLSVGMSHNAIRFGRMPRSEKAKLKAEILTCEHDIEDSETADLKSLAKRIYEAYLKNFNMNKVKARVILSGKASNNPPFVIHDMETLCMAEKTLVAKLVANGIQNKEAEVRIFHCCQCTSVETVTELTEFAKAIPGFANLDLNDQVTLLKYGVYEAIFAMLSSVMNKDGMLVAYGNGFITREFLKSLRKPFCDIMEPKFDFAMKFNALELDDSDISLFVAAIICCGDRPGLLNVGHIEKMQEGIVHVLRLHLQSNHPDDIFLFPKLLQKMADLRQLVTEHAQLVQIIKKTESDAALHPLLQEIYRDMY
From the text: (§1) Principles of in Vitro Test of PPAR Agonist Activity
(§2) Nuclear Hormone Receptor (NHR) Test
(§3) PathHunter's NHR protein interaction and nuclear transfer test are used to detect the activation ability of nuclear hormone receptor in a uniform, non-imaging experiment. This technology is called as enzyme fragment complementation […], and is developed by DiscoverX.
(§4) NHR protein test is based on the detection of the protein-protein interaction between a standard length of NHR protein in an activated state and a nuclear fusion protein containing a steroid receptor co-activating peptide (SRCP) region and one or more standard LXXLL acting sequences.
(§5) NHR is labeled on the ProLink™ component of an EFC test system, and the SRCP region and the enzyme receptor component (EA) are fused and expressed in the nucleus. When bound to the ligand, the NHR will transfer to the nucleus and obtain the SRCP region in which a complementary effect is produced, thereby generating an equivalent amount of activated-galactosidase (-Gal), accompanied by the generation of chemical light signals. The benefits associated with this pathway include reduced incubation time of the compound, direct test of an NHR target, use of human NHR sequences with a standard length, and selection of some new classes of compounds based on the disruption of protein-protein interactions.
(§6) The NHR NT test detected the transfer of an NHR between the cytoplasmic and nuclear compartments. The receptor was labeled on the ProLink™ component of the EFC test system, while the EA and nuclear sequence were fused, thereby limiting the expression of EA on the nucleus. Nucleus transfer leaded to the complementary effect with EA, thereby generating one equivalent of activated galactosidase (-Gal), accompanied by the generation of chemical light signals.
(§7) 1. PathHunter NHR cell strains were spread from a frozen stock in accordance with standard operations.
(§8) 2. Cells were seeded onto a 384-well white cell plate of 20 uL/well, and incubated at 37° C. for an appropriate time prior to test. The culture medium contained activated carbon dextran with filtered serum to reduce the level of hormone expression.
(§9) Experiments of Agonist Mode:
(§10) 1. As for the measurement of an agonist activity, it is required to incubate the cells with the compound to induce a response.
2. […]
(§11) 2. The chemiluminescence signals generated by the microplate were to be detected by a PerkinElmer Envision instrument.
(§12) 1. The activity of the compound was analyzed by CIBS data analysis software (ChemInnovation, CA).
(§13) 2. For experiments of agonist mode, the percentage activity is calculated by the following formula: % activity=100%×(the mean RLU of the compound to be tested−the mean background RLU of the medium)/(the mean of maximum control of the ligand−the mean background RLU of the medium)

PPAR Delta = target: T2, PPAR Delta (Homo sapiens, UniProt Q03181); experiment: PathHunter NHR protein interaction test, agonist mode, PPAR Delta; assay type: cell-based
T2 sequence (Q03181 1-441): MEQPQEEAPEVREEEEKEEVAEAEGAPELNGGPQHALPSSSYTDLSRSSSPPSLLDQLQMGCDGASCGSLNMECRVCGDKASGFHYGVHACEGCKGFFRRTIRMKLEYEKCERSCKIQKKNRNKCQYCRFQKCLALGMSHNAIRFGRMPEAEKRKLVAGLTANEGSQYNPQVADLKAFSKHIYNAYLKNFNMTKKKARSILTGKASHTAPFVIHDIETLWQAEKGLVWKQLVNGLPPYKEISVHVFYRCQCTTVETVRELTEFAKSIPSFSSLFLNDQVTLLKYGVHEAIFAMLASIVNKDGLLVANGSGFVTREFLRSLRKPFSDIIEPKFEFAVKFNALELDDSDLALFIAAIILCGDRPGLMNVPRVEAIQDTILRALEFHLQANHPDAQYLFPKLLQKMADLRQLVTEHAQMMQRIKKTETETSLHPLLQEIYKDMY
From the text: as §1, §2, §3, §4, §5, §6, §7, §8, §9, §10
2. […]
as §11, §12, §13

PPAR Gamma = target: T3, PPAR Gamma (Homo sapiens, UniProt P37231); experiment: PathHunter NHR protein interaction test, agonist mode, PPAR Gamma; assay type: cell-based
T3 sequence (P37231 1-505): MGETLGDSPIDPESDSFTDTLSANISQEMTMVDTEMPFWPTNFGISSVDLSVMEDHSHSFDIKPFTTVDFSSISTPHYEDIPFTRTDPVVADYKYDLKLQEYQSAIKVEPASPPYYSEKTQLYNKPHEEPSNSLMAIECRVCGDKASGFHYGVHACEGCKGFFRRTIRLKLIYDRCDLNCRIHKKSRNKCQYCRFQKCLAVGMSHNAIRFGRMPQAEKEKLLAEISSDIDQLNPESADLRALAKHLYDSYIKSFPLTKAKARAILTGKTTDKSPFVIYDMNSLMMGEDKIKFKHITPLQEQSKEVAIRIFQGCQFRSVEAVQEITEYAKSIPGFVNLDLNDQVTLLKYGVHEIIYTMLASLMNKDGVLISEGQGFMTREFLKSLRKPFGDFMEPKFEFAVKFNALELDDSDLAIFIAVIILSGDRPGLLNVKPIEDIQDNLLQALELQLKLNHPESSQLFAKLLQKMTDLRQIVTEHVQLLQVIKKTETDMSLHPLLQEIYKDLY
From the text: as §1, §2, §3, §4, §5
The NHR NT test detected the transfer of an NHR between the cytoplasmic and nuclear compartments. […]
as §11, §12, §13

[1] = test system: CCl4-induced C57BL/6 mouse acute liver injury; experiment: CCl4-induced C57BL/6 mouse acute liver injury experiment; assay type: in vivo; conditions: no data shown
[2] = test system: MCD diet-induced db/db mouse NASH; experiment: MCD diet-induced db/db mouse NASH model; assay type: in vivo; conditions: no data shown

CSc1ccc(C(=O)[C@@H]2CN(C(=O)Oc3ccccc3)C[C@H]2Cc2cc(C)c(OC(C)(C)C(=O)O)c(C)c2)cc1 [Compound of formula (I)]
EC50 (PPAR Alpha; agonist mode): < 100 nM | activation effect on PPAR Alpha receptor (PPAR Alpha; summary of Table 5): significant activation effect | EC50 (PPAR Delta; agonist mode): < 100 nM | activation effect on PPAR Delta receptor (PPAR Delta; summary of Table 5): significant activation effect | EC50 (PPAR Gamma; agonist mode): > 250 nM | activation effect on PPAR Gamma receptor (PPAR Gamma; summary of Table 5): selective activation effect | effect on liver injury [1]: significantly improving effect | effect on NAS Score [2]: significantly improving effect | effect on liver fibrosis [2]: significantly improving effect
